Substitutions are numbered along the chain they refer to.
How the values were obtained:
Y2 receptor H155P = molecular target: T1, Y2 receptor H155P (Homo sapiens, UniProt P49146, H155P); format: binding
T1 sequence (P49146 1-381 H155P): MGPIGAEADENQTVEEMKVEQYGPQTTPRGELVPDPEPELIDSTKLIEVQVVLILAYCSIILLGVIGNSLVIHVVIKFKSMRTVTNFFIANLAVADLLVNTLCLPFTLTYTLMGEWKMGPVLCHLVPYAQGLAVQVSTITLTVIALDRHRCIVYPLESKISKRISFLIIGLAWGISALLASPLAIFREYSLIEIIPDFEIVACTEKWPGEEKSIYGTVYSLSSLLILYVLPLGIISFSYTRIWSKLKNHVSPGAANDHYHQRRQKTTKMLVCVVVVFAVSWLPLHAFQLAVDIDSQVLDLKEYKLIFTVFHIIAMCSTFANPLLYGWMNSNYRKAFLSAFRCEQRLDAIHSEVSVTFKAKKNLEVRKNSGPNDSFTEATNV

Y1 receptor ΔY346 = format: binding, rat
Y1 receptor 5A = molecular target: T2, Y1 receptor 5A (Rattus norvegicus, UniProt P21555, S352A/S359A/S362A/T353A/T361A); experiment: [125I]PYY competition binding, Y1 5A/βarr2 membranes
T2 sequence (P21555 1-382 S352A/T353A/S359A/T361A/S362A): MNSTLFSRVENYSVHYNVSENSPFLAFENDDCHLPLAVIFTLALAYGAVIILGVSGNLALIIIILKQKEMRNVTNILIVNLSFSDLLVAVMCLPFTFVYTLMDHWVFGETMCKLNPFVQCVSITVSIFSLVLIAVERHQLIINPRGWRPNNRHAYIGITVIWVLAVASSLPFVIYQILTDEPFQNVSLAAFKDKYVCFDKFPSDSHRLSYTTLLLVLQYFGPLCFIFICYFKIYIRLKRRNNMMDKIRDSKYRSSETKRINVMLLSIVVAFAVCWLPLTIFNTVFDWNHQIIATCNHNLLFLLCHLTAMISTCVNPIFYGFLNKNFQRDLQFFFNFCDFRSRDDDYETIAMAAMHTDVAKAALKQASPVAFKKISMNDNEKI

[1] = molecular target: T3, Y1 receptor T356A, S359A, TSA (Rattus norvegicus, UniProt P21555, S359A/S362A/T356A/T361A); experiment: [125I]PYY competition binding, Y1 T356A, S359A, TSA/βarr2 membranes
T3 sequence (P21555 2-382 T356A/S359A/T361A/S362A): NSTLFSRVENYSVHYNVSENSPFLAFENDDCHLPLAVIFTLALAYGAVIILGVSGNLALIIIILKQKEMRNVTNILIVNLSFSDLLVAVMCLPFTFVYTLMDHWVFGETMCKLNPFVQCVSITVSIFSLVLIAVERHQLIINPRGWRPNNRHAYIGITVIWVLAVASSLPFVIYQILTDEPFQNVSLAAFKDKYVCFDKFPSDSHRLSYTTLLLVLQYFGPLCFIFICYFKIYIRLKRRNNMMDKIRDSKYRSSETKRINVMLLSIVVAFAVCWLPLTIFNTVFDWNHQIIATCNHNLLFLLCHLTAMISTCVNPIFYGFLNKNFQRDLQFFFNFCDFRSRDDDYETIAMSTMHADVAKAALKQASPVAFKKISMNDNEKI

Y1 receptor = molecular target: T4, Y1 receptor (Rattus norvegicus, UniProt P21555); experiment: [125I]PYY competition binding, Y1/βarr2 membranes; conditions: inhibition of [125I]PYY specific binding
T4 sequence (P21555 2-382): T3 sequence (P21555 2-382 T356A/S359A/T361A/S362A) with A355T, A358S, A360T, A361S

Y1 receptor S359A = molecular target: T5, Y1 receptor S359A (Rattus norvegicus, UniProt P21555, S359A); experiment: [125I]PYY competition binding, Y1 S359A/βarr2 membranes
T5 sequence (P21555 2-382 S359A): T3 sequence (P21555 2-382 T356A/S359A/T361A/S362A) with A355T, A360T, A361S

[2] = molecular target: T6, Y1 receptor STA (S352A, T353A) (Rattus norvegicus, UniProt P21555, S352A/T353A); experiment: [125I]PYY competition binding, Y1 STA/βarr2 membranes
T6 sequence (P21555 2-382 S352A/T353A): T3 sequence (P21555 2-382 T356A/S359A/T361A/S362A) with S351A, T352A, A355T, A358S, A360T, A361S

[3] = inhibition of [125I]PYY specific binding

Question: What does the source list for `Nc1nc2c(ncn2[C@@H]2O[C@H](COP(=O)(O)OP(=O)(O)OP(O)(O)=S)[C@@H](O)[C@H]2O)c(=O)[nH]1` [GTPγS, guanosine-5′-O-(3-thio)triphosphate]?
Answer: GTPγS 1 µM inhibition (%), Y2 H155P (Y2 receptor H155P; 1 µM GTPγS): 70.2 ± 5.3%; GTPγS pIC50, Y2 H155P (Y2 receptor H155P; [3]): 9.17 ± 0.05; GTPγS 1 µM inhibition (%), Y1 ΔY346 (Y1 receptor ΔY346; 1 µM GTPγS): 61.9 ± 8.8%; GTPγS pIC50, Y1 ΔY346 (Y1 receptor ΔY346; [3]): 8.57 ± 0.04; GTPγS 1 µM inhibition (%), Y1 5A (Y1 receptor 5A; 1 µM GTPγS): 55.7 ± 3.4%; GTPγS pIC50, Y1 5A (Y1 receptor 5A; [3]): 8.81 ± 0.28; GTPγS 1 µM inhibition (%), Y1 T356A, S359A, TSA ([1]; 1 µM GTPγS): 53.0 ± 7.4%; GTPγS pIC50, Y1 T356A, S359A, TSA [1, 3]: 9.21 ± 0.20; GTPγS 1 µM inhibition (%), Y1 (Y1 receptor; 1 µM GTPγS): 58.6 ± 4.1%; GTPγS pIC50, Y1 (Y1 receptor; 30 µg·mL−1 saponin): 9.05 ± 0.21; GTPγS 1 µM inhibition (%), Y1 S359A (Y1 receptor S359A; 1 µM GTPγS): 54.7 ± 3.5%; GTPγS pIC50, Y1 S359A (Y1 receptor S359A; [3]): 9.18 ± 0.08; GTPγS 1 µM inhibition (%), Y1 STA ([2]; 1 µM GTPγS): 61.4 ± 4.0%; GTPγS pIC50, Y1 STA [2, 3]: 9.00 ± 0.15

Source: paper PMC2901518 (British Journal of Pharmacology, 2010)
